Read-outs that look alike come from different tables or passages of the source.

The subject of assay [1] is U87MG pLVX-IDH2 R140Q-neo cells. Kind of assay: U87MG pLVX-IDH2 R140Q-neo cell based assay, 2-HG by LC-MS. Conditions: Homo sapiens, U-87 MG.
In assay [2] the target is IDH1 wt/IDH1 R132H heterodimer (Homo sapiens (Human), UniProt O75874, R132H). Kind of assay: In vitro assay for IDH1m R132H inhibitors, IDH1 wt/IDH1 R132H heterodimer, NADPH depletion (diaphorase/resazurin). The class given is biochemical. The procedure:
The following describes the experimental procedures that can be used to obtain data on columns 2 and 4 of Table 4 and column 2 of Table 5.
In the primary reaction, the reduction of α-KG acid to 2-HG is accompanied by a concomitant oxidation of NADPH to NADP. The amount of NADPH remaining at the end of the reaction time is measured in a secondary diaphorase/resazurin reaction in which the NADPH is consumed in a 1:1 molar ratio with the conversion of resazurin to the highly fluorescent resorufin.
The mixture of compound, enzyme, and cofactor is pre-incubated at room temperature for 1 hr prior to the addition of alpha-ketoglutarate. To perform the secondary reaction, 10 uL of 1× buffer containing 36 μg/ml diaphorase and […] resazurin is added to the primary reaction and incubated for a further 5 minutes at 25° C. […] Compounds or compound dilutions are prepared in 100% DMSO concentration and diluted 1:50 into the final reaction. […] IC50s are determined.
IDH1 or IDH2 wildtype (wt) and mutant heterodimers are expressed and purified by methods known in the art. […] Co-expression of IDH1wt-his and IDH1R132C-flag is carried out in sf9 insect cells. Cells (25 g) are resuspended in 250 ml of 50 mM Tirs, 500 mM NaCl, pH7.4, at 4° C. with stirring. Cells are disrupted with 4 passes through an M-Y110 Micro fluidizer (Microfluidics) set to 500 psi, and then centrifuged at 22,000 rcf for 20 min at 4° C. The supernatant is harvested and loaded at 15 cm/h on a Histrap FF 5*1 ml column (GE) which is equilibrated with 50 mM Tirs, 500 mM NaCl, pH7.4. Host cell contaminants are removed by washing the column with equilibration buffer followed by equilibration buffer containing 20 mM imidazole and 60 mM imidazole to baseline. IDH1wt-his homodimer and IDH1wt-his/IDH1R132C-flag are eluted by equilibration buffer containing 250 mM imidazole. Fractions eluted by 250 mM imidazole are pooled together and loaded at 15 cm/h onto a column pre-packed with 10 ml ANTI-FLAG® M2 Affinity Gel (Sigma), the column is equilibrated with 50 mM Tris, 500 mM NaCl, pH7.4. After washing with equilibration buffer, IDH1wt-his/IDH1R132C-flag heterodimer is eluted by equilibration buffer containing flag peptide (0.2 mg/ml). Aliquots of IDH1wt-his/IDH1R132C-flag are flash frozen in liquid N2 and stored at −80° C. Same conditions are used for the purification of IDH1wt-his/IDH1R132H-flag.
In general terms: The colour change of resazurin is a common sign of viable cells or microbes.

In assay [3] the test system is Neurosphere cells (TS603). Kind of assay: Cellular assay for IDH1m R132H inhibitors, 2-HG by LC-MS in neurosphere cells (TS603). The class given is cell-based. The conditions noted are these: 2-HG in media at 48 hours. The protocol: Cellular Assay for IDH1m R132H Inhibitors.
The following describes the experimental procedures that can be used to obtain data in column 4 of Table 5.
Neurosphere cells (TS603) are grown at 37 C in 5% CO2 in Stem Cell Technologies NeuroCult™ NS-A media supplemented with 1% Primocin, 1% Normocin, 0.0002% Heparin, 20 ng/mL EGF and 10 ng/mL bFGF. Cells are harvested, pelleted and resuspended in Accumax for cell dissociation and counting. Cells are counted and then resuspended in NeuroCult media with 2× heparin, EGF and bFGF at 4 million cells/10 mL media. 100 μl of cell solution are plated in each well of a 96 well with the exception of columns 1 and 12. Columns 1 and 12 contain 200 μL PBS. Compound dose responses are set up at a 2× concentration in Neurocult media without heparin, EGF and bFGF. The final concentration of DMSO is 0.25%. DMSO only control wells are plated in row H. The plates are then placed in the incubator for 48 hours. At 48 hours, 100 μl of media is removed from each well and analyzed by LC-MS for 2-HG concentrations. The cell plate is placed back in the incubator for another 24 hours. At 72 hours post compound addition, 10 mL/plate of Promega Cell Titer Glo reagent is thawed and mixed. The cell plate is removed from the incubator and allowed to equilibrate to room temperature. Then 100 μl of Promega Cell Titer Glo reagent is added to each well of media. The cell plate is then placed on an orbital shaker for 10 minutes and then allowed to sit at room temperature for 20 minutes. The plate is then read for luminescence with an integration time of 500 ms.

Another assay concerns the target IDH2 R140Q (Homo sapiens (Human), UniProt P48735, R140Q). Kind of assay: In vitro assay for IDH2m R140Q inhibitors, cofactor depletion assay. The class given is biochemical. The conditions noted are these: IDH2 R140Q enzyme. From the text:
The following describes the experimental procedures used to obtain data on column 7 of Table 4.
The reaction is terminated by the addition of a second enzyme, diaphorase, and a corresponding substrate, resazurin. Diaphorase reduces resazurin to the highly fluorescent resorufin with the concomitant oxidation of NADPH to NADP, both halting the IDH2 reaction by depleting the available cofactor pool and facilitating quantitation of the amount of cofactor remaining after a specific time period through quantitative production of an easily detected fluorophore.
The test compound is then incubated for one hour at room temperature with the enzyme; before starting the IDH2 reaction with the addition of 10 μl of substrate mix containing 4 μM NADPH and 1.6 mM α-KG in the buffer described above. After a further 16 hours of incubation at room temperature, the reaction is halted and the remaining NADPH measured through conversion of resazurin to resorufin by the addition of 25 μl Stop Mix (36 μg/ml diaphorase enzyme and 60 μM resazurin; in buffer).

Where [4] appears, read: IDH1 wt/R132H heterodimer, NADPH/NADP, not saturated, read-out: IDH1 wt/R132H NADPH/NADP IC50 not saturated.
The mark [5] stands for this setting: IDH1 wt/IDH1 R132H heterodimer, 300 μM NADP (saturated), read-out: IDH1 wt/R132H NADPH/NADP IC50 saturated.

Sequence of IDH1 wt/IDH1 R132H heterodimer (O75874 whole entry R132H): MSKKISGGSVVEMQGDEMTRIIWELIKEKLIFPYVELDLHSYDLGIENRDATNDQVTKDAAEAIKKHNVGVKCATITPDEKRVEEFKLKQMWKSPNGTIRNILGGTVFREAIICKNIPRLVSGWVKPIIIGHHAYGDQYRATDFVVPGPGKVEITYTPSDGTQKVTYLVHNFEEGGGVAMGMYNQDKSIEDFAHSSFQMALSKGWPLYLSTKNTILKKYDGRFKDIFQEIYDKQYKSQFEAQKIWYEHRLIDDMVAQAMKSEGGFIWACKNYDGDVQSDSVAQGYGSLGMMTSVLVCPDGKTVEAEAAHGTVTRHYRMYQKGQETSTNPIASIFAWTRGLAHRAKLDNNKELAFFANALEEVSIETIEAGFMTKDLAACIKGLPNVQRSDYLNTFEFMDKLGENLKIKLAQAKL
Sequence of IDH1 wt/IDH1 R132H heterodimer (O75874 whole entry, stated change not applied): as the sequence (O75874 whole entry R132H) above, with H132R counted along it
Sequence of IDH2 R140Q (P48735 40-452 R140Q): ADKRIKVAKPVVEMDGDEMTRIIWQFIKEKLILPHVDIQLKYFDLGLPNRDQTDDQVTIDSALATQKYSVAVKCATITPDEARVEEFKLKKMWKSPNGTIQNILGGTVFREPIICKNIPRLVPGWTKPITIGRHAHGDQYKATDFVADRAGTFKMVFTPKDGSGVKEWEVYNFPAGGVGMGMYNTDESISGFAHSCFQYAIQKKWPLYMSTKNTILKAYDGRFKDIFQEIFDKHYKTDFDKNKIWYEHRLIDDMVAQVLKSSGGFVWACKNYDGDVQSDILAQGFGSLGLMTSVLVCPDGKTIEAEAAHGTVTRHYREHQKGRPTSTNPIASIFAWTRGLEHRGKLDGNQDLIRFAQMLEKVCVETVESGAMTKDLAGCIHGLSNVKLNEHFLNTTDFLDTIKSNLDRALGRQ

In the case of `Fc1ccc([C@H]2C[C@H](Nc3nc(NC4CCC(F)(F)C4)nc(-c4cccc(C(F)(F)F)n4)n3)C2)cc1` (some centres unmarked) [Compound 230], the IC50 (in assay [1]; in assay [2] (setting [4]); in assay [3]; at IDH2 R140Q) was less than 50 nM each time.

In the case of `FC(F)(F)c1cc(Nc2nc(NCC3CC3(F)F)nc(-c3cccc(C(F)(F)F)n3)n2)ccn1` (centres unmarked) [Compound 365], the IC50 in assay [1] was less than 50 nM; in assay [2] (setting [5]), 50 to 100 nM; in assay [3] it was less than 50 nM; on IDH2 R140Q, less than 50 nM.

As to `FC(F)(F)c1cc(Nc2nc(NCC3CC3)nc(-c3nc(C(F)(F)F)cs3)n2)ccn1` [Compound 379], the IC50 in assay [1] is less than 50 nM; in assay [2] (setting [5]) it was 50 to 100 nM; in assay [3], less than 50 nM; against IDH2 R140Q it was less than 50 nM.

`C[C@@H](Nc1nc(N[C@H](C)C(F)(F)F)nc(-c2ccnc(C(F)(F)F)n2)n1)C(F)(F)F` [Compound 344]: the IC50 was 50 to 100 nM in assay [1], 50 to 100 nM in assay [2] (setting [5]), less than 50 nM in assay [3] and 50 to 100 nM against IDH2 R140Q.

Take `CC(F)(F)c1cc(Nc2nc(NC3CCC(F)(F)CC3)nc(-c3cccc(C(F)(F)F)n3)n2)ccn1` [Compound 361]: the IC50 was less than 50 nM in assay [1], 50 to 100 nM in assay [2] (setting [5]), less than 50 nM in assay [3] and less than 50 nM against IDH2 R140Q.

`C[C@H](Nc1nc(Nc2ccnc(C3(C#N)CC3)c2)nc(-n2ccc(C(F)(F)F)n2)n1)C(F)(F)F` [Compound 349]: the IC50 (in assay [1]; in assay [2] (setting [5]); in assay [3]; at IDH2 R140Q) was less than 50 nM each time.

Turning to `CC(F)(F)c1cncc(-c2nc(NC3CCC(F)(F)CC3)nc(NC3CCC(F)(F)CC3)n2)n1` [Compound 374], the IC50 is less than 50 nM in assay [1], 50 to 100 nM in assay [2] (setting [5]), less than 50 nM in assay [3] and less than 50 nM on IDH2 R140Q.

Turning to `CC(F)(F)c1cc(Nc2nc(NC3CC(F)(F)C3)nc(-c3cccc(C(F)(F)F)n3)n2)ccn1` [Compound 358], the IC50 (in assay [1]; in assay [2] (setting [5]); in assay [3]; at IDH2 R140Q) was less than 50 nM each time.

With `CC(F)(F)c1cc(Nc2nc(N[C@@H]3CCC(F)(F)C3)nc(-c3cccc(C(F)(F)F)n3)n2)ccn1` [Compound 355], the IC50 (in assay [1]; in assay [2] (setting [5]); in assay [3]; against IDH2 R140Q) was less than 50 nM each time.

For the molecule `N#CC1(c2cc(Nc3nc(N[C@@H]4CCC(F)(F)C4)nc(-c4nccc(C(F)(F)F)n4)n3)ccn2)CC1` [Compound 375], the IC50 in assay [1] is less than 50 nM; in assay [2] (setting [5]), 100 to 1000 nM; in assay [3] it was less than 50 nM; on IDH2 R140Q, less than 50 nM.

Regarding `CC[C@H](Nc1nc(N[C@@H](CC)C(F)(F)F)nc(-c2cccc(C(F)(F)F)n2)n1)C(F)(F)F` [Compound 346], the IC50 (in assay [1]; in assay [2] (setting [5]); in assay [3]; at IDH2 R140Q) was less than 50 nM each time.

As for `FC1(F)CCC(Nc2nc(NC3CC4(C3)CC(F)(F)C4)nc(-c3cccc(C(F)(F)F)n3)n2)CC1` [Compound 228], the IC50 (in assay [1]; in assay [2] (setting [4]); in assay [3]; on IDH2 R140Q) was less than 50 nM throughout.

Take `CC(F)(F)c1cc(Nc2nc(N[C@H]3CCC(F)(F)C3)nc(-c3cccc(C(F)(F)F)n3)n2)ccn1` [Compound 360]: the IC50 (in assay [1]; in assay [2] (setting [5]); in assay [3]; against IDH2 R140Q) was less than 50 nM in each case.

On to `Fc1ccc2c(c1)CC(Nc1nc(NC3CCC(F)(F)C3)nc(-c3cccc(C(F)(F)F)n3)n1)C2` (centres unmarked) [Compound 150], for which the IC50 (in assay [1]; in assay [2] (setting [4]); in assay [3]; against IDH2 R140Q) was less than 50 nM each time.

For `CC(F)(F)c1csc(-c2nc(NC3CCC(F)(F)CC3)nc(NC3CCC(F)(F)CC3)n2)n1` [Compound 357], the IC50 in assay [1] is less than 50 nM; in assay [2] (setting [5]), 50 to 100 nM; in assay [3] it was less than 50 nM; against IDH2 R140Q, less than 50 nM.

For the molecule `FC1(F)CCC(Nc2nc(NC3CCC(F)(F)C3)nc(-c3cccc(C(F)(F)F)n3)n2)CC1` (centres unmarked) [Compound 395], the IC50 (in assay [1]; in assay [2] (setting [5]); in assay [3]; against IDH2 R140Q) was less than 50 nM in each case.

Consider `C[C@@H](Nc1nc(Nc2ccnc(-c3ccccc3)c2)nc(-c2cccc(C(F)(F)F)n2)n1)C(F)(F)F` [Compound 359], for which the IC50 (in assay [1]; in assay [2] (setting [5]); in assay [3]; against IDH2 R140Q) was less than 50 nM in each case.

For the molecule `N#CC1(c2cc(Nc3nc(N[C@H]4CCC(F)(F)C4)nc(-c4cncc(C(F)(F)F)n4)n3)ccn2)CC1` [Compound 373], the IC50 (in assay [1]; in assay [2] (setting [5]); in assay [3]; on IDH2 R140Q) was less than 50 nM in each case.

In the case of `FC1(F)CCC(Nc2nc(NC3CCC(F)(F)C3)nc(-c3cncc(Cl)n3)n2)C1` (centres unmarked) [Compound 129], the IC50 (in assay [1]; in assay [2] (setting [4]); in assay [3]; at IDH2 R140Q) was less than 50 nM each time.

Take `FC1(F)CC[C@@H](Nc2nc(Nc3ccnc(C(F)(F)F)c3)nc(-c3ccnc(C(F)(F)F)n3)n2)C1` [Compound 340]: the IC50 is less than 50 nM in assay [1], 100 to 1000 nM in assay [2] (setting [5]), 50 to 100 nM in assay [3] and less than 50 nM on IDH2 R140Q.

With `C[C@@H](Nc1nc(Nc2ccnc(-c3ccc(C#N)cc3)c2)nc(-c2cccc(C(F)(F)F)n2)n1)C(F)(F)F` [Compound 383], the IC50 in assay [1] is less than 50 nM; in assay [2] (setting [5]), 100 to 1000 nM; in assay [3] it was less than 50 nM; against IDH2 R140Q it was less than 50 nM.

For `Fc1cc(F)cc(Nc2nc(NC3CCC(F)(F)CC3)nc(-c3cncc(C(F)(F)F)n3)n2)c1` [Compound 367], the IC50 (in assay [1]; in assay [2] (setting [5]); in assay [3]; against IDH2 R140Q) was less than 50 nM throughout.

Turning to `FC1(F)CC[C@H](Nc2nc(N[C@H]3CCC(F)(F)C3)nc(-c3cncc(C(F)(F)F)n3)n2)C1` [Compound 406], the IC50 (in assay [1]; in assay [2] (setting [5]); in assay [3]; against IDH2 R140Q) was less than 50 nM throughout.

The values above are taken from US10028961B2, “Therapeutically active compounds and their methods of use” (AGIOS PHARMACEUTICALS, INC., priority 2013, dated 2018).
